We go through two compounds from US8133902B2, “Ammosamides as anticancer agents” (The Regents of the University of California, priority 2007, dated 2012).

What all share (type): cell-based
For assay [1], the system named is HCT-116 colon carcinoma. The experiment in a line: in vitro cytotoxicity against HCT-116 colon carcinoma. As to conditions: Homo sapiens. An excerpt: Compounds IA and IB are isolated in a pure form from a marine-derived actinomycete strain CNR698. More specifically, compound IA is obtained from the marine-derived actinomycete strain CNR698, and is the first natural product to contain a […] functionality. Compound IB is obtained from the marine-derived actinomycete strain CNR698. The actinomycete was obtained from a marine sediment. Briefly, the actinomycete, identified as a Streptomyces strain (CNR-698) was isolated from bottom sediments collected at a depth of 300 meters in the Bahamas Islands. […] Subsequent cytotoxicity-guided (HCT-116) fractionation by C18 flash chromatography and RP-HPLC led to the isolation of ammosamides A (compound IA) and B (compound IB) as dark blue and blue-purple, respectively (3 and 4 mg/L)
Accordingly, in some embodiments of the invention, compounds IA and IB are used for making pharmaceutical compositions comprising either or both of the two compounds and a pharmaceutically acceptable carrier. In addition, the pharmaceutical compositions can optionally comprise one or more additional anticancer agent(s).
Activity of probe 4 (FIG. 1) was compared to that of ammosamide A (1 on FIG. 1). […] Florescence microscopy was then used to examine the uptake of probe 4, which was concentrated within HeLa, HCT-116 and PC-3 cells within minutes (FIG. 2). The entire fluorescence from addition of 1 mL of 1 μM in […] appeared within the cell.

Assay [2] relates to HCT-116 cells. Briefly: cell cycle effects by FACS analysis. As to conditions: FIG. 3a-c, 50 μM. The protocol:
The results of the study of the activity are discussed below with the reference to FIG. 3. […] Further, FIG. 3a illustrates cell cycle response for unsyncronized HCT-116 cells, FIG. 3b for HCT-116 cells synchronized and treated at G0 and incubated for 12 hours, and FIG. 3c, for HCT-116 cells synchronized and treated at S and incubated for 12 hours.
The effects of probe 4 on cell cycle were evaluated using FACS analysis.

The subject of assay [3] is HeLa, HCT-116 and PC-3 cells. Briefly: live cell fluorescence microscopy, retention and localization. The conditions noted are these: pretreatment with 1 mL DMEM containing 10 μM. The procedure:
HeLa cells (ATCC CCL-2) were cultured in phenol red-free Dulbecco's modification of Eagle's medium (DMEM) with 4.5 g/L glucose, […] and 5% heat inactivated fetal calf serum (FCS) in glass-bottom dishes. The cells were synchronized using a double thymidine block. Phenol red, a common additive in DMEM, was not used during the culturing or experimentation. Fluorescent images were collected on a Nikon TE 2000 using irradiation with a mercury vapor lamp (Nikon), filtration through a dichroic filter set (FF409, Semrock) with an excitation at 377±50 nm, dichroic with >98% reflection at 344-404 nm and >98% transmission at 415-570 nm, and emission filter at 447±60 nm, focusing with an Oil Immersion Epiplan 60× objective (Zeiss), and image collection with an SPOT RT-KE color CCD Camera (Diagnostic Instruments Inc.).
The results of the study of the activity are discussed below with the reference to FIG. 2. […]
Live cell fluorescence microscopy was then conducted to detail the intracellular localization of probe 4. […]
After 12 hours of incubation, the blue fluorescence from probe 4 was vesiculated (FIG. 2d). […] In particular, the overlap of red fluorescence from the red lysosome stain, LysoTracker Red DND-99, and the blue fluorescence from probe 4 provided strong evidence in support of this observation (FIG. 2f).

Setting [4] is: HCT-116, read-out: cytotoxicity IC50 values.
Setting [5] is: HCT-116, read-out: in vitro cytotoxicity IC50.

Where two headings read alike, the source gives them in different places. Bounds are passed on as bounds.

In the case of `CN1C(=S)c2cc(C(N)=O)nc3c(N)c(Cl)c(N)c1c23` [Compound IA, ammosamide A], the IC50 is less than 1 µM in assay [1] (setting [4]) and 0.32 µM in assay [1] (setting [5]). In assay [2], the “cell cycle data relative to probe 4” value is listed as “Comparable cell cycles data”. Further, in assay [3], the “effect of pretreatment on uptake of probe 4” value is “blocked the uptake of probe 4”.

As to `CN1C(=O)c2cc(C(N)=O)nc3c(N)c(Cl)c(N)c1c23` [Compound IB, ammosamide B], the IC50 was less than 1 µM in assay [1] (setting [4]) and 0.32 µM in assay [1] (setting [5]).

The IC50 is the concentration that gives 50% inhibition.
